Test results published in article PMC8037142, “Design, Synthesis, Molecular Modeling and Antitumor Evaluation of Novel Indolyl-Pyrimidine Derivatives with EGFR Inhibitory Activity” (Molecules, 2021).
Like-named read-outs stand apart in the source and are kept apart here.

Experiments:
[1] = tested on: HCT-116 colon cancer cell line; assay: Resazurin Cell Growth Inhibition Assay, HCT-116; format: cell-based, human; details: HCT-116, 48 h, mean ± SD of three experiments, read-out: Cytotoxic Activity IC50
Procedure: (§1) Compounds 1–4 were assessed for their in vitro cytotoxic activity against three human cell lines i.e., breast (MCF-7), liver (HepG2), colon (HCT-116) cancer cell lines as well as in lung fibroblast (WI38) normal cell line using the Resazurin Cell Growth Inhibition Assay. Both erlotinib and 5-Fluorouracil (5-FU) were used as reference drugs. Concentrations of the tested compounds that give about 50% inhibition of cell viability (IC50, mean of triplicate) in µM were obtained. […] However, if replaced by a hydrazone substituent, a more prominent efficacy toward the three cancer cell lines was observed. […] The most promising in vitro antiproliferative activity was obtained when the hydrazone is bearing electron-withdrawal groups i.e., 4-chlorobenzylidene moiety (compound 3f), 3,4-dichloro benzylidene moiety (compound 3g) and 4-fluorobenzylidene moiety (compound 3h) compared to the standard treatment (Table 1, Figure 5). The inhibitory activity of compounds was reduced when the hydrazone group is bearing electron donating groups i.e., 4-methyl group (compound 3b), 2-methoxy group (compound 3c), 4-hydroxy (compound 3d) and 4-dimethylamino group (compound 3e). The trend of antiproliferative activity of compounds […] against all tested cell lines has the following descending order: (3g > 3h >3f >3a >3b > 3c > 3d > 3e). […]. […] This is mainly because this compound has the highest lipophilicity as well as less electron density as it has 2-Cl atoms (more electronegativity) on the indolyl pyrimidine-thiazolidinone.
(§2) In vitro cytotoxicity was measured according to the Resazurin Cell Growth Inhibition Assay Alamar Blue or Resazurin (Promega, Mannheim, Germany) reduction assay was used to assess the cytotoxicity of the studied samples. The assay tests cellular viability and mitochondrial function. Briefly, adherent cells were grown in tissue culture flasks, and then harvested by treating the flasks with 0.025% trypsin and 0.25 mM EDTA for 5 min. Once detached, cells were washed, counted, and an aliquot (5 × 10^3 cells) were placed in each well of a 96-well cell culture plate in a total volume of […]. Cells were allowed to attach overnight and then treated with samples. […]. Each assay was performed as triplicates. […] […]. The viability was compared based on a comparison with untreated cells. IC50 (on cancer cells) were the concentration of sample required to inhibit 50% of the cell proliferation and were calculated from a calibration curve by a linear regression using Microsoft Excel.

[2] = tested on: MCF-7 breast cancer cell line; assay: Resazurin Cell Growth Inhibition Assay, MCF-7; format: cell-based; details: Homo sapiens, MCF7; MCF-7, 48 h, mean ± SD of three experiments; read-out: Cytotoxic Activity IC50
Procedure: as §1, §2

[3] = tested on: MCF-7, HepG2 and HCT-116 cancer cell lines; assay: Resazurin assay, range over the three cancer cell lines; format: cell-based; details: Homo sapiens; range over MCF-7, HepG2 and HCT-116; read-out: IC50 range against the cancer cell lines
Procedure: Compounds 1–4 were assessed for their in vitro cytotoxic activity against three human cell lines i.e., breast (MCF-7), liver (HepG2), colon (HCT-116) cancer cell lines as well as in lung fibroblast (WI38) normal cell line using the Resazurin Cell Growth Inhibition Assay. Both erlotinib and 5-Fluorouracil (5-FU) were used as reference drugs. Concentrations of the tested compounds that give about 50% inhibition of cell viability (IC50, mean of triplicate) in µM were obtained. […] However, if replaced by a hydrazone substituent, a more prominent efficacy toward the three cancer cell lines was observed. […] The most promising in vitro antiproliferative activity was obtained when the hydrazone is bearing electron-withdrawal groups i.e., 4-chlorobenzylidene moiety (compound 3f), 3,4-dichloro benzylidene moiety (compound 3g) and 4-fluorobenzylidene moiety (compound 3h) compared to the standard treatment (Table 1, Figure 5). […]
In vitro cytotoxicity was measured according to the Resazurin Cell Growth Inhibition Assay Alamar Blue or Resazurin (Promega, Mannheim, Germany) reduction assay was used to assess the cytotoxicity of the studied samples. […] Once detached, cells were washed, counted, and an aliquot (5 × 10^3 cells) were placed in each well of a 96-well cell culture plate in a total volume of 100 mL. […]

[4] = Resazurin Cell Growth Inhibition Assay, WI38 normal cells; format: cell-based; details: human, WI38 normal lung fibroblast cells, WI-38 normal cells, mean ± SD of three experiments, read-out: Cytotoxic Activity IC50
Procedure: as §1, §2

[5] = tested on: HepG2 liver cancer cell line; assay: Resazurin Cell Growth Inhibition Assay, HepG2; format: cell-based, human; details: HepG2, 48 h, mean ± SD of three experiments, read-out: Cytotoxic Activity IC50
Procedure: as §1, §2

[6] = tested on: Ehrlich ascites carcinoma (EAC); assay: In vivo antitumor assay in EAC tumor bearing mice; details: 0.5 mg/mouse for nine days; for Tumor Volume: ascitic fluid; for MST (mean survival time): mean of two experiments; for Viable Tumor Cell Count: trypan blue
Procedure: The antitumor activity of these compounds was assessed by the change in tumor volume, viable cell count, mean survival time (MST) and % increase in lifespan (% ILS) of the EAC tumor bearing mice and 5-FU (standard treatment). The mean survival time (MST) and % increase in lifespan (% ILS) of EAC tumor bearing mice, as well as the influence of these compounds on viable tumor cells and the tumor volume, are shown in Table 2. The hematological profile of these mice was also assessed in comparison with the standard treatment with 5-FU, and no obvious effect on RBCs or WBCs was observed. […] MST = (day of first death + day of last death)/2 %ILS = [(MST of treated group/MST of control group) − 1] × 100 […]
In vivo antitumor evaluation was carried out as previously reported (see Supplementary Materials).
2. Biological Evaluation Details: a) In vivo antitumor assay: Materials . Adult Swiss male mice (weighing 20 -25 g) were obtained from the Department of Pharmacology, Faculty of Pharmacy, Mansoura University, Egypt.
They were kept in microlon boxes at temperature 25 ± 2 °C with a regular 12 hrs light/dark cycle. In addition, food and water were available. EAC cells (procured from NCI, Cairo, Egypt) were harvested and prepared, then their total number was counted.
Procedure. 7 Groups of mice ( n = 4) were used.
Group 1: Negative control (no EAC cells) - received normal saline.
Group 2: Positive control (EAC cells) - received normal saline.
Group 3: EAC cells - treated with compound 3g (0.5 mg/mouse).
Group 4: EAC cells - treated with compound 4f (0.5 mg/mouse).
Group 5: EAC cells - treated with compound 4g (0.5 mg/mouse).
Group 6: EAC cells - treated with compound 4h (0.5 mg/mouse).
Group 7: EAC cells - treated with 5-fluorouracil (0.5 mg/mouse).
2 x 10^6 EAC cells were injected intraperitoneally in each mouse (groups 2-7). After […]
for nine days, then blood samples were withdrawn for assessment of blood count.
Determination of tumor volume
The ascetic fluid was gathered from the peritoneal cavity and its volume was determined. It was then centrifuged, and the packed tumor cell volume was measured.
Determination of viable tumor cell count
100 μL Sample of EAC cells (from three mice per group) was utilized and diluted twenty times with saline. Cells were stained with trypan blue, viable cells are not stained, while the dead ones are stained. The number of viable cells was calculated.

EGFR kinase = EGFR kinase (Homo sapiens, UniProt P00533); assay: In vitro EGFR inhibitory assay (EnzyChrom Kinase Assay Kit EKIN-400); details: for inhibition at 10 µM: read-out: % Inhibition of EGFR
Sequence of EGFR kinase (P00533 25-1210): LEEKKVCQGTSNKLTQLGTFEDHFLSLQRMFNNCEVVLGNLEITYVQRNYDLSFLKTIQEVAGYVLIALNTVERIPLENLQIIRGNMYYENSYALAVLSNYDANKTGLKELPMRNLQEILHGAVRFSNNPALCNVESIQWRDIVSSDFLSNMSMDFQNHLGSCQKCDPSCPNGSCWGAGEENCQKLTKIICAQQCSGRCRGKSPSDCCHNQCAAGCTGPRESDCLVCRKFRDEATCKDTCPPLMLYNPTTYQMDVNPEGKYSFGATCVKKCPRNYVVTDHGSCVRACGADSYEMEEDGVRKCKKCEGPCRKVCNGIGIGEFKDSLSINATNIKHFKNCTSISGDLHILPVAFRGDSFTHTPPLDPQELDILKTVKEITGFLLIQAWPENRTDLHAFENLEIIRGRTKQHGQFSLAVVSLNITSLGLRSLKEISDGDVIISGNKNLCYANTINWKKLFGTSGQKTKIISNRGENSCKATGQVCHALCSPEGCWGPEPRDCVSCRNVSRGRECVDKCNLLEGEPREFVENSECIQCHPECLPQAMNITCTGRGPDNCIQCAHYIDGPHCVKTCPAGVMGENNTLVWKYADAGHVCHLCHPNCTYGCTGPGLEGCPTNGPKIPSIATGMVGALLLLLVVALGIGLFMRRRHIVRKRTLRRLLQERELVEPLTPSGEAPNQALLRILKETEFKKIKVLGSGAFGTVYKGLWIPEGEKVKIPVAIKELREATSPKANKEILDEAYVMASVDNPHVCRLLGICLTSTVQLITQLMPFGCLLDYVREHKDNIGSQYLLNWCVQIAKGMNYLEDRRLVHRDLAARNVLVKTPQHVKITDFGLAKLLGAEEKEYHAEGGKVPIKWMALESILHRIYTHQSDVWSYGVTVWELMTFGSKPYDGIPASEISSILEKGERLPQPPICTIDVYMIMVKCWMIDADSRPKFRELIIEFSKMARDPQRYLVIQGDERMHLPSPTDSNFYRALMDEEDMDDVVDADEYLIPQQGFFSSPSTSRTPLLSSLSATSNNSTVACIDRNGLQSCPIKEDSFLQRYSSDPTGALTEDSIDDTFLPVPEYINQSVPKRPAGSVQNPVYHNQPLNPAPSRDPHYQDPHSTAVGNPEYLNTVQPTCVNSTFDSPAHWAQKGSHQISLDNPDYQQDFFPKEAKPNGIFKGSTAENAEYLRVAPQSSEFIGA
Procedure: A first-generation EGFR inhibitor, erlotinib, was used as standard treatment. […] IC50 for these compounds was determined. […] In addition, 20 µL reaction mixture containing the EGFR kinase, ATP, and substrate in the provided assay buffer. Set up a blank control that contains ATP and substrate but no enzyme. Incubate at desired temperature for 30 min. Prepare 900 µL 10µM (adenosine diphosphate) ADP premix by mixing 3 µL of 3 mM standard and 897 µL distilled water. Transfer 20 µL standards into separate wells of the plate. Prepare enough working reagent for each well. Add 40 µL working reagent to each assay well. Tap plate to mix. Incubate at room temperature for 10 min. Read fluorescence intensity at λexc = 530nm and λem = 590 nm, and then calculate kinase activity.

melting point [°C] | IC50 [3] [µM] | Structure (SMILES) | IC50 ([1]; Homo sapiens) [µM] | IC50 [2] [µM] | IC50 at 48 h [4] [µM] | IC50 ([5]; Homo sapiens) [µM] | Tumor Volume [6] [mL] | MST (mean survival time) [6] [days] | Viable Tumor Cell Count [6] | IC50 [1] [µM] | inhibition at 10 µM (EGFR kinase) [%] | IC50 [5] [µM] | IC50 (EGFR kinase) [µM]
245 to 247 | 26.8 to 28.2 | CCOC(=O)C1=C(C)NC(=S)NC1c1c[nH]c2ccccc12 (stereo not shown) [Compound 1, Ethyl 4-(1H-indol-3-yl)-6-methyl-2-thioxo-1,2,3,4-tetrahydropyrimidine-5-Carboxylate] | 27.2 ± 1.11 | 26.8 ± 2.2 | 30 ± 1.2 | 28.8 ± 2.25 | – | – | – | – | – | – | –
208 to 210 | 21.6 to 25.5 | CC1=C(C(=O)NN)C(c2c[nH]c3ccccc23)NC(=S)N1 (stereo not shown) [Compound 2, 4-(1H-indol-3-yl)-6-methyl-2-thioxo-1,2,3,4-tetrahydropyrimidine-5-carbohydrazide] | 22.2 ± 1.5 | 21.6 ± 1.8 | 40.5 ± 2.25 | 25.5 ± 2.17 | – | – | – | – | – | – | –
– | – | CC1=C(C(=O)NN2C(=O)CSC2c2ccc(Cl)c(Cl)c2)C(c2c[nH]c3ccccc23)NC(=S)N1 (stereo not shown) [Compound 4g, N-(2-(3,4-dichlorophenyl)-4-oxothiazolidin-3-yl)-4-(1H-indol-3-yl)-6-methyl-2-thioxo-1,2,3,4-tetrahydropyrimidine-5-carboxamide] | 6.6 | 5.1 ± 1.14 | 16.3 ± 3.21 | 5.02 | 0.89 | 46 | 21.70 10^6/mL | 5.02 ± 1.19 | 79 | 6.6 ± 1.4 | –
– | – | CC1=C(C(=O)NN2C(=O)CSC2c2ccc(F)cc2)C(c2c[nH]c3ccccc23)NC(=S)N1 (stereo not shown) [Compound 4h, N-(2-(4-fluorophenyl)-4-oxothiazolidin-3-yl)-4-(1H-indol-3-yl)-6-methyl-2-thioxo-1,2,3,4-tetrahydropyrimidine-5-carboxamide] | 7.02 ± 0.46 | 6.6 ± 1.28 | 18.1 ± 2.06 | 7.5 ± 1.29 | 1.18 | 40 | 28.50 10^6/mL | – | 70 | – | 0.39 ± 0.02
